# Measured values: ChEMBL document CHEMBL2040746, “Synthesis and evaluation of novel podophyllotoxin analogs” (Bioorg Med Chem Lett, 2012)
# Key:
# Type in all cases: functional, cell-based
# [1] = test system: DU-145; assay: Cytotoxicity against human DU145 cells by SRB assay
# [2] = test system: KB; assay: Cytotoxicity against human KB cells by SRB assay
# [3] = Cytotoxicity against human KBVIN cells by SRB assay
# [4] = test system: A549; assay: Cytotoxicity against human A549 cells by SRB assay
structure (smiles),measurement,setting,value
COC(=O)[C@H]1C(/C=C/C(=O)c2ccc([N+](=O)[O-])cc2)=Cc2cc(OC)c(OC)cc2[C@H]1c1cc(OC)c(OC)c(OC)c1,IC50,[1],20.3 µg/mL
same,IC50,[2],16 µg/mL
same,IC50,[3],23 µg/mL
same,IC50,[4],16.8 µg/mL
COC(=O)[C@H]1C(/C=C/C(=O)c2ccc(O)cc2)=Cc2cc(OC)c(OC)cc2[C@H]1c1cc(OC)c(OC)c(OC)c1,IC50,[1],5.84 µg/mL
same,IC50,[2],5.9 µg/mL
same,IC50,[3],5.17 µg/mL
same,IC50,[4],6.79 µg/mL
COc1cc2c(cc1OC)[C@@H](c1cc(OC)c(OC)c(OC)c1)[C@H](C(=O)N1CCCC1)C(/C=C/C(=O)c1ccc(C3CCCCC3)cc1)=C2,IC50,[1],12.8 µg/mL
same,IC50,[2],12.3 µg/mL
same,IC50,[3],12.3 µg/mL
same,IC50,[4],12 µg/mL
COc1cc2c(cc1OC)[C@@H](c1cc(OC)c(OC)c(OC)c1)[C@H](C(=O)N1CCCC1)C(/C=C/C(=O)c1ccc(-c3ccccc3)cc1)=C2,IC50,[1],15.5 µg/mL
same,IC50,[2],16.6 µg/mL
same,IC50,[3],16.9 µg/mL
same,IC50,[4],24.6 µg/mL
COc1cc([C@@H]2c3cc4c(cc3[C@@H](Nc3ccc([N+](=O)[O-])cc3)[C@H]3COC(=O)[C@H]23)OCO4)cc(OC)c1O,IC50,[1],0.8 µg/mL
same,IC50,[2],0.819 µg/mL
same,IC50,[3],2.1 µg/mL
same,IC50,[4],0.113 µg/mL
